Among the data in ChEMBL document CHEMBL1201862, “PubChem BioAssay data set” (2004) are AC50 and IC50 values, retold here.

Each structure is given as a SMILES string. Active and inactive are the calls of the source.

For orientation: AC50 means the midpoint of the concentration-response curve, whichever way the signal moves. Broadly, the IC50 is the concentration at which inhibition is half-maximal.

In data set [1] the target is Cytochrome P450 2D6 (Homo sapiens, UniProt P10635).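 Note: CYP2D6 member of a cytochrome P450 panel assay.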
Data set [2] concerns the target T1, Cytochrome P450 1A2 (Homo sapiens, UniProt P05177).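 Note: PubChem cytochrome P450 panel assay, CYP1A2 panel member.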
T1 sequence (P05177 whole entry): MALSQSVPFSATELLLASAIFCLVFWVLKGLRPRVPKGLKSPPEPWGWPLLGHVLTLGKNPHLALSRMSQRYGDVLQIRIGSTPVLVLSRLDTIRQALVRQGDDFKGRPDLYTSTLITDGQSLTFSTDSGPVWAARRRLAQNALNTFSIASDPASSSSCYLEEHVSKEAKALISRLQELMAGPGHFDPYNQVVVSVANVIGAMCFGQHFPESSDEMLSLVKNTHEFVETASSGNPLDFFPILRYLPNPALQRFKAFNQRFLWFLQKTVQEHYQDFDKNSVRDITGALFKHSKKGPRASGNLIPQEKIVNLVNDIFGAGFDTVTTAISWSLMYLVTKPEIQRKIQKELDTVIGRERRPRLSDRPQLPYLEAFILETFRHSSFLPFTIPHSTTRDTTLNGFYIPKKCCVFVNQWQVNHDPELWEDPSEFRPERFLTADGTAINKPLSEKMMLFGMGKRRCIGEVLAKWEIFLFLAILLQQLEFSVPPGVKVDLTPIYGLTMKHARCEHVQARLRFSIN

The target of data set [3] is Cytochrome P450 3A4 (Homo sapiens, UniProt P08684).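 Note: CYP3A4 tested as one member of a cytochrome P450 panel screen.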
Data set [4] has as its target Cytochrome P450 2C9 (Homo sapiens, UniProt P11712).
Data set [5] concerns the target Cytochrome P450 2C19 (Homo sapiens, UniProt P33261). Nature of the data set: Cytochrome panel assay with activity outcomes. Panel member name: p450-cyp2c19 Compounds with AC50 equal or less than 10 uM are considered active. Type of data set: functional. As to conditions: read-out: AC50.
Data set [6] in a line: HEK-293T viability loss after treatment – luminescence, T-cell screen hits, cytotoxicity control for TCR NF-kB inhibitor project, dose response (AID 489026).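 Note: cells exposed to compound about 14 hours before the viability readout.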 Type of data set: functional, cell-based.
Data set [7] has as its system INS1. The data set can be described thus: INS-1E survival protection against cytokine death – cell-based, luminescence, retest, dose response (AID 449756).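 Note: cell death triggered by IL-1 beta plus TNF-alpha plus IFN-gamma mixture; protective hits raise ATP signal compared with cytokine alone wells.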 Type of data set: functional. As to conditions: Rattus norvegicus.
Data set [8] concerns the target Nonstructural protein 1 (Influenza A virus, UniProt Q194T2). The class given is functional, Influenza A virus (A/California/07/2009(H1N1)).
The nature of data set [9]: Luminescence Cell-Based Dose Retest to Confirm Inhibitors of Cancer Stem Cells. [Related pubchem assays (depositor defined):AID2717, AID2721]. The class given is functional. As to conditions: Homo sapiens.

Chain of Cytochrome P450 3A4 (P08684 whole entry): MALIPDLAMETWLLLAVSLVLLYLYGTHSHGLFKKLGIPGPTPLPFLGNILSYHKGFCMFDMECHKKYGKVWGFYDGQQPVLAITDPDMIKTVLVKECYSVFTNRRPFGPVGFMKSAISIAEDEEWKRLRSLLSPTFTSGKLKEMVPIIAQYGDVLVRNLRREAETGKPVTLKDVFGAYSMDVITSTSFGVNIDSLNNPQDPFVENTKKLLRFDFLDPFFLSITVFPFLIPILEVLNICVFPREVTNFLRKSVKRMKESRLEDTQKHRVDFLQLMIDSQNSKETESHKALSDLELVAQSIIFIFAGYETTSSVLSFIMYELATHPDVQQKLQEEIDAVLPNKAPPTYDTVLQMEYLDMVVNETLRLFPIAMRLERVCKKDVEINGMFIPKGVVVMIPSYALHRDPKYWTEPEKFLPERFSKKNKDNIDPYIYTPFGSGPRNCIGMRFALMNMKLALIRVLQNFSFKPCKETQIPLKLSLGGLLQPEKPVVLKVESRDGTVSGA
Chain of Cytochrome P450 2C19 (P33261 whole entry): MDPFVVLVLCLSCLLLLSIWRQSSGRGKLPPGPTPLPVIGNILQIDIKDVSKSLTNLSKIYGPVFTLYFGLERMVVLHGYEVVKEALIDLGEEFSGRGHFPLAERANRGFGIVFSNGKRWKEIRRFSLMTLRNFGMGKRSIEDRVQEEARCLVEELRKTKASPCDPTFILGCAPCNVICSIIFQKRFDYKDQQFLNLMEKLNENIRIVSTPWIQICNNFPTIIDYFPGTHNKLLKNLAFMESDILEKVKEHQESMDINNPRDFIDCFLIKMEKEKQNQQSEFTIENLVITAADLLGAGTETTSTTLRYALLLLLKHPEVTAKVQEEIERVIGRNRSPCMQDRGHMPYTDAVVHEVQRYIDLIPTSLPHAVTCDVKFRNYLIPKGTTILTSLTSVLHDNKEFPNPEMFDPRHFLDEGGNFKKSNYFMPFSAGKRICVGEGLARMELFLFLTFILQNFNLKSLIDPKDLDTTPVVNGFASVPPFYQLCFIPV
Chain of Cytochrome P450 2C9 (P11712 whole entry): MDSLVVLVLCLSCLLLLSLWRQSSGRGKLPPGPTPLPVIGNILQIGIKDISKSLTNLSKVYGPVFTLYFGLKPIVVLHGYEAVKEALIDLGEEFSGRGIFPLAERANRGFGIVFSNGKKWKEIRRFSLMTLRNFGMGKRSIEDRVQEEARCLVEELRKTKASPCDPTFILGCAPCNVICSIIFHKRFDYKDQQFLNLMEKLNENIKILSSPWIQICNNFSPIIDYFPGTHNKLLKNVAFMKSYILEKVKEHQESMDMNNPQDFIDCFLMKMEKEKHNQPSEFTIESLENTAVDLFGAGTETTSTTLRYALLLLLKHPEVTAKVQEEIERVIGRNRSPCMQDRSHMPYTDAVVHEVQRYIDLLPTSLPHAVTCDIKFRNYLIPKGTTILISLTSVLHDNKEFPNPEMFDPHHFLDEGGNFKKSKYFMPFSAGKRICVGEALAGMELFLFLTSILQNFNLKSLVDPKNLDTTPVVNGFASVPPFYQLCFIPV
Chain of Cytochrome P450 2D6 (P10635 whole entry): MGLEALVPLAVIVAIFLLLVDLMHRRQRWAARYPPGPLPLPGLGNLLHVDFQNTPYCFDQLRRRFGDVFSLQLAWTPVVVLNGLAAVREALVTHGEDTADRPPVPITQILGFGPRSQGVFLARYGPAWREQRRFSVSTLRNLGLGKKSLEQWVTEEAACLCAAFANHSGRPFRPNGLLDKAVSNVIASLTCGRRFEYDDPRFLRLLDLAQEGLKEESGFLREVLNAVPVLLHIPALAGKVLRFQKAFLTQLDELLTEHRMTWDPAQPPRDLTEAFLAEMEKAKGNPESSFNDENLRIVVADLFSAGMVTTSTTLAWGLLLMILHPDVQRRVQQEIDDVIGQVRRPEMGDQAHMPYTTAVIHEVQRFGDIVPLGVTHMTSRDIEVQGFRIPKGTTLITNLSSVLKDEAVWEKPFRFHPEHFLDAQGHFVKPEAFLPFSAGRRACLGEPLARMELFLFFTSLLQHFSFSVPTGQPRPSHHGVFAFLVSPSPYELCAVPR
Chain of Nonstructural protein 1 (Q194T2 whole entry): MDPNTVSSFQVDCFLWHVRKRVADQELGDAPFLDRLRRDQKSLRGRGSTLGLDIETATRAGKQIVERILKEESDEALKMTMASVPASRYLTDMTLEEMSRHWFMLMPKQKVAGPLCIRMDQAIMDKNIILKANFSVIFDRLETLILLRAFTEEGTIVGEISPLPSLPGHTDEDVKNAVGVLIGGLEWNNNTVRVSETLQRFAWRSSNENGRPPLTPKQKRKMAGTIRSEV

Regarding `CCOC(=O)C1=C(C)N=C2SC(C(=O)OC)=CC(=O)N2C1c1ccc(F)cc1` (stereo unspecified), the values for the AC50 in data set [1], in data set [2] and in [3] were 12.6 µM (inconclusive), 31.6 µM (inconclusive) and “inconclusive”, respectively.

As for `O=C(c1cccc(F)c1)N1CCC2(CC1)CN(c1cccc(-c3ccccc3)c1)C2`, the values for the AC50 in data set [2] and in data set [3] were 12.6 µM (inconclusive) and “inconclusive”, respectively.

On to `Cn1c(=O)c(-c2ccccc2)nc2cnc(N3CCOCC3)nc21`, for which the AC50 is 39.8 µM (inconclusive) in [4], “inconclusive” in data set [3] and 39.8 µM (inconclusive) in data set [5].

As to `COC(=O)N1CCC2(CC1)CN(c1ccccn1)C2`, the AC50 in data set [1] is 10 µM (inconclusive); in data set [3], “inconclusive”.

Take `O=C(c1ccco1)N1CCC2(CC1)CN(c1ccc(-c3ccccc3)cc1)C2`: the figures for the AC50 in [2], in [3] and in [5] were 1 µM (inconclusive), “inconclusive” and 0.158 µM (inconclusive), respectively.

`Cc1cnc(CNc2cc(-c3ccccc3C)ncn2)cn1`: the AC50 entry in [3] is “inconclusive”.

Regarding `C/C(=N\NC(=O)c1cc(C)nc2ccccc12)c1ccccn1`, the values for the IC50 in [6] and in [8] were > 80 µM (inactive) and 2.23 µM (active), respectively. For the same compound, the AC50 in data set [7] was 0.626 µM (active); in data set [9] it was 3.37 µM (active).

Consider `Oc1ccc2[nH]cc(CCCCN3CC=C(c4ccccc4)CC3)c2c1` [ROXINDOLE], for which the values for the AC50 in data set [4], in data set [3] and in [5] were 12.6 µM (inconclusive), “inconclusive” and 20 µM (inconclusive), respectively.
